Calls of active or inactive are those of the source. No cut-off for these calls is given here.
Tests used:
Carbonic anhydrase 12 [1] = molecular target: T1, Carbonic anhydrase 12 (Homo sapiens, UniProt O43570); assay: Inhibition of membrane bound human CA 12 preincubated for 15 mins by phenol red dye-based stopped-flow CO2 hydration assay
Carbonic anhydrase 2 = Carbonic anhydrase 2 (Homo sapiens, UniProt P00918); assay: Inhibition of human cytosolic CA 2 preincubated for 15 mins by phenol red dye-based stopped-flow CO2 hydration assay
Carbonic anhydrase 1 = Carbonic anhydrase 1 (Homo sapiens, UniProt P00915); assay: Inhibition of human cytosolic CA 1 preincubated for 15 mins by phenol red dye-based stopped-flow CO2 hydration assay
Chain of Carbonic anhydrase 1 (P00915 whole entry): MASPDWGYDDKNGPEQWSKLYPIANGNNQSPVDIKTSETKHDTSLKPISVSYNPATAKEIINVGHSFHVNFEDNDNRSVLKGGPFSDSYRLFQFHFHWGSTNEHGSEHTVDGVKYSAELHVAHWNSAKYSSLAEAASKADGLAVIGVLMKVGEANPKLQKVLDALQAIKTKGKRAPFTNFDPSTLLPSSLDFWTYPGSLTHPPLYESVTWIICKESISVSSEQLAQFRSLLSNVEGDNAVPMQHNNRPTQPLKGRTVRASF

Carbonic anhydrase 9 = Carbonic anhydrase 9 (Homo sapiens, UniProt Q16790); assay: Inhibition of membrane bound human CA 9 preincubated for 15 mins by phenol red dye-based stopped-flow CO2 hydration assay
SK-MEL-2 [2] = assay: Cytotoxicity against human SK-MEL-2 cells assessed as reduction in cell viability incubated for 48 hrs under hypoxia condition by MTT assay relative to control; assay type: functional, cell-based
ARPE-19 [3] = assay: Cytotoxicity against human ARPE19 cells assessed as reduction in cell viability incubated for 48 hrs under hypoxia condition by MTT assay relative to control; assay type: cell-based; settings: arpe-19, 48 h
PANC-1 [4] = assay: Cytotoxicity against human PANC1 cells assessed as reduction in cell viability incubated for 48 hrs under hypoxia condition by MTT assay relative to control; assay type: functional, cell-based
PANC-1 [5] = assay: Cytotoxicity against human PANC1 cells assessed as reduction in cell viability incubated for 48 hrs under hypoxia condition by MTT assay relative to human ARPE19 cells; assay type: functional
PANC-1 [6] = assay: Cytotoxicity against human PANC1 cells assessed as reduction in cell viability incubated for 48 hrs under hypoxia condition by MTT assay; assay type: functional, cell-based
PANC-1 [7] = assay: Cytotoxicity against human PANC1 cells assessed as reduction in cell viability incubated for 48 hrs under normoxic condition by MTT assay relative to control; assay type: functional, cell-based
ARPE-19 [8] = assay: Cytotoxicity against human ARPE19 cells assessed as reduction in cell viability incubated for 48 hrs under normoxic condition by MTT assay relative to control; assay type: cell-based; settings: arpe-19, 48 h
SK-MEL-2 [9] = assay: Cytotoxicity against human SK-MEL-2 cells assessed as reduction in cell viability incubated for 48 hrs under normoxic condition by MTT assay relative to control; assay type: functional, cell-based
Carbonic anhydrase 12 [10] = molecular target: T1, Carbonic anhydrase 12
Description: Inhibition of human CA 12 catalytic domain

SK-MEL-2 [11] = assay: Cytotoxicity against human SK-MEL-2 cells assessed as reduction in cell viability at 300 uM incubated for 48 hrs under normoxic condition by MTT assay relative to control; assay type: functional, cell-based

T1 sequence (O43570 whole entry): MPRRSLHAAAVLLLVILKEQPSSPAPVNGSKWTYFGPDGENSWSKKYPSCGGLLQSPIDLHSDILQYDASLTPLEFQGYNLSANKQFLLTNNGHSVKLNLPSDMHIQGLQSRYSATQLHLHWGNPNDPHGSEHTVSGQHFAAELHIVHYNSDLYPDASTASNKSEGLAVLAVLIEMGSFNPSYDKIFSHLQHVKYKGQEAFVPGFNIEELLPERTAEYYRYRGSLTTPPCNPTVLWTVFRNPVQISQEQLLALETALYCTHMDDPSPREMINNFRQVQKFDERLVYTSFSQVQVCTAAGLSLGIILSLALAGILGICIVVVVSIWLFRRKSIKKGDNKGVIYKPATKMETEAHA

Compound	Ki (Carbonic anhydrase 12 [1])	Ki (Carbonic anhydrase 2)	Ki (Carbonic anhydrase 1)	Ki (Carbonic anhydrase 9)	Ki (Carbonic anhydrase 12 [10])	Activity (SK-MEL-2 [2])	Activity (ARPE-19 [3])	Activity (PANC-1 [4])	Activity (PANC-1 [5])	Activity (PANC-1 [6])	Activity (PANC-1 [7])	Activity (ARPE-19 [8])	Activity (SK-MEL-2 [9])	Activity (SK-MEL-2 [11])
NS(=O)(=O)c1ccc(-n2nc(-c3ccc4c(c3)OCO4)ccc2=O)cc1	63.7 nM	1.4 nM	99 nM	28.2 nM										
NS(=O)(=O)c1ccc(N2N=C(c3ccc(Cl)c(Cl)c3)CCC2=O)cc1	67.1 nM	74.1 nM	5960 nM	6 nM										
NS(=O)(=O)c1ccc(-n2nc(-c3ccncc3)ccc2=O)cc1	8.7 nM	4.8 nM	227 nM	50.8 nM										
NS(=O)(=O)c1ccc(N2N=C(c3ccccc3)CCC2=O)cc1	22.5 nM	0.26 nM	187 nM	4.8 nM										
NS(=O)(=O)c1ccc(-n2ncc(N3CCOCC3)cc2=O)cc1	9.8 nM	0.55 nM	292 nM	2.1 nM										
NS(=O)(=O)c1ccc(S(=O)(=O)Nc2cccc3c(Cl)c[nH]c23)cc1					3 nM									
NS(=O)(=O)c1ccc(-n2ncc(N3CCCCCC3)cc2=O)cc1	6.3 nM	0.08 nM	88.2 nM	0.56 nM										
NS(=O)(=O)c1ccc(-n2nc(-c3ccccc3O)ccc2=O)cc1	9.3 nM	0.62 nM	84.1 nM	0.46 nM										
CCN1CCN(c2cnn(-c3ccc(S(N)(=O)=O)cc3)c(=O)c2)CC1	25.3 nM	4.3 nM	311 nM	41.3 nM										Active
COc1ccc(C2=NN(c3ccc(S(N)(=O)=O)cc3)C(=O)CC2)cc1	9.9 nM	0.08 nM	92.7 nM	2.4 nM			Dose-dependent effect		>30%			Dose-dependent effect		
NS(=O)(=O)c1ccc(-n2ncccc2=O)cc1	81.2 nM	8.2 nM	320 nM	9 nM		inactive	Non-Toxic	inactive	>30%	inactive	inactive	Non-Toxic	inactive	

Further compounds by falling Ki (Carbonic anhydrase 12 [1]), results first:

Ki (Carbonic anhydrase 12 [1])	Ki (Carbonic anhydrase 2)	Ki (Carbonic anhydrase 1)	Ki (Carbonic anhydrase 9)	Ki (Carbonic anhydrase 12 [10])	Compound	Activity (SK-MEL-2 [2])	Activity (ARPE-19 [3])	Activity (PANC-1 [4])	Activity (PANC-1 [5])	Activity (PANC-1 [6])	Activity (PANC-1 [7])	Activity (ARPE-19 [8])	Activity (SK-MEL-2 [9])	Activity (SK-MEL-2 [11])
105 nM	46.6 nM	676 nM	89.5 nM		NS(=O)(=O)c1ccc(-n2ncc(N3CCN(c4ccccn4)CC3)c(Cl)c2=O)cc1				>30%					
85.5 nM	60.5 nM	738 nM	89.6 nM		NS(=O)(=O)c1ccc(-n2ncc(N3CCc4ccccc4C3)c(Cl)c2=O)cc1									
66.4 nM	3.5 nM	90.7 nM	8.9 nM		COc1ccc2cnn(-c3ccc(S(N)(=O)=O)cc3)c(=O)c2c1OC									
50.6 nM	0.23 nM	72.3 nM	0.32 nM		NS(=O)(=O)c1ccc(-n2ncc3ccccc3c2=O)cc1									
36 nM	0.07 nM	89 nM	0.58 nM		NS(=O)(=O)c1ccc(-n2ncc(N3CCOCC3)c(Cl)c2=O)cc1	Dose-dependent effect			>30%			Non-Toxic	Dose-dependent effect	
31 nM	0.68 nM	88.2 nM	32.8 nM		CC1=NN(c2ccc(S(N)(=O)=O)cc2)C(=O)CC1				>30%					
10.1 nM	0.67 nM	481 nM	2.8 nM		NS(=O)(=O)c1ccc(-n2ncc(NCCCN3CCOCC3)c(Cl)c2=O)cc1									
9.9 nM	2.3 nM	482 nM	8.7 nM		NS(=O)(=O)c1ccc(-n2ncc(Cl)c(Cl)c2=O)cc1				>30%					
9.4 nM	0.09 nM	95.1 nM	0.67 nM		NS(=O)(=O)c1ccc(-n2ncc(NCc3ccccc3)c(Cl)c2=O)cc1									
9 nM	0.03 nM	89.7 nM	0.24 nM		Cc1nn(-c2ccc(S(N)(=O)=O)cc2)c(=O)c2ccccc12									
8.8 nM	2.9 nM	101 nM	2.3 nM		Cc1cc(-c2cccnc2)nn(-c2ccc(S(N)(=O)=O)cc2)c1=O									
8.4 nM	0.06 nM	97.4 nM	0.49 nM		NS(=O)(=O)c1ccc(-n2ncc(N3CCCCCC3)c(Cl)c2=O)cc1		Dose-dependent effect		>30%			Dose-dependent effect		
7.2 nM	0.29 nM	485 nM	0.7 nM		CCN1CCN(c2cnn(-c3ccc(S(N)(=O)=O)cc3)c(=O)c2Cl)CC1	inactive	Non-Toxic	inactive	>30%	inactive	inactive	Non-Toxic	inactive	
